Target: T1, TycA (Brevibacillus parabrevis, UniProt P09095)
T1 construct: this wild-type tycA cDNA encoding the A-, T-, and E-domains was subcloned into a pSU18 vector; made in house; host or cells: Escherichia coli BL21(DE3)
T1 sequence (P09095 with tags, fused parts or gaps): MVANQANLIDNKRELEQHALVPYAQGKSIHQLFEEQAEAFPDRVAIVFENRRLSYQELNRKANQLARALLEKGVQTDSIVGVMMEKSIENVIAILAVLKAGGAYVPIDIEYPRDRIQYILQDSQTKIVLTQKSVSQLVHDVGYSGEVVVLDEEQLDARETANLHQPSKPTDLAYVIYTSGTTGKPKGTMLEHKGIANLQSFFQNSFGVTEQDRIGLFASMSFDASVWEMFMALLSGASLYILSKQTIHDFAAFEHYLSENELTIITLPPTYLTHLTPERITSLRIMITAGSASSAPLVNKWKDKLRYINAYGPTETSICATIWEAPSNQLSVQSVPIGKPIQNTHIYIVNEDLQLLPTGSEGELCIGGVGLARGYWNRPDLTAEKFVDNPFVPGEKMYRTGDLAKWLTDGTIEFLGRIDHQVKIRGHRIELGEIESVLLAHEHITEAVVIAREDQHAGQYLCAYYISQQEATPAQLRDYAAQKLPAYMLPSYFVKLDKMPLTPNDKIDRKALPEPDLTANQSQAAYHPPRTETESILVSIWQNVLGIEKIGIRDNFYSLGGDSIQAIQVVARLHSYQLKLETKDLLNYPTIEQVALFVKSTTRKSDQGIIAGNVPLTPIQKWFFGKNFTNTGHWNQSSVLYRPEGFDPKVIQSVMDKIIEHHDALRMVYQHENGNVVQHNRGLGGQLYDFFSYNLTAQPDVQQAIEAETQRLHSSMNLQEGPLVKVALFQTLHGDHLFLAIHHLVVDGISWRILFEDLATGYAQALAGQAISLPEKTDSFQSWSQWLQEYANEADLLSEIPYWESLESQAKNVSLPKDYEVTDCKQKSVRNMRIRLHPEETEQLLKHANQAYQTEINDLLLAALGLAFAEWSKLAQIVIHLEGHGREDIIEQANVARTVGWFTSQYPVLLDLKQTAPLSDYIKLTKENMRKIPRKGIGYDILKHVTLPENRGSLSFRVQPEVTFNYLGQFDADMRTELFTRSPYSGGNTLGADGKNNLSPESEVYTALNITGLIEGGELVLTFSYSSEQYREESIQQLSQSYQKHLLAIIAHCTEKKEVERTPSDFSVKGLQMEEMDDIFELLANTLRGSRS
Test: N-acetylcysteamine ligase reaction kinetics, TycA
Format: biochemical, Brevibacillus brevis
Settings: NAC with (S)-α-Phe as cosubstrate; for kcat^NAC: TycA with NAC at apparent saturation
Protocol: Substrates (S)-α-phenylalanine, (R)-β-phenylalanine, and (2R,3S)-phenylisoserine (each at 1 mM) were separately incubated with TycA or TycA-S563A (20 μg) in the presence of N-acetylcysteamine (NAC; 1 mM), ATP (1 mM), and Mg^2+ (3 mM) to establish steady-state conditions with respect to protein concentration and time at 31° C. Under steady-state conditions, either (S)-phenylalanine, (R)-β-phenylalanine, or (2R,3S)-phenylisoserine at 5, 10, 20, 40, 80, 160, 250, 500, 1000 and 2000 μM was separately incubated with TycA or TycA-S563A (20 μg), ATP (1 mM), Mg^2+ (3 mM), and N-acetylcysteamine (1 mM, ‘NAC’) in duplicate, single stopped-time ([…]) 100 μL assays. The reactions were quenched by acidification to a pH of about 2 (10% formic acid in distilled water). […] The samples were analyzed on a Quattro-Premier Electro-Spray Mass Spectrometer coupled with Acquity® UPLC system fitted with a C18 Ascentis Express column (2.5×50 mm, 2.7 μm) at 30° C. […] In brief, the effluent from the chromatography column was directed to the Quattro Premier ESI mass spectrometer, in MRM scan mode, to quantify the biosynthetic acyl SNAC products. […] A standard curve was used to convert the peak area under the curve of the monitored fragment ion to concentration for each biosynthetic phenylpropionyl SNAC.
Authentic (5)-α-phenylalanyl, (R/S)-β-phenylalanyl- and (2R,3S)-phenylisoserinyl-SNAC were used to construct the standard curves by correlating the peak area under the curve of the monitored ion to concentration of the standard (at 0.16, 0.32, 0.64, 1.3, 2.5, 5, 10, 20, 40, 80, 160 and 320 μM) using linear regression analysis.
The KM values of TycA and TycA-S563A for N-acetylcysteamine (NAC) was assessed by incubating each enzyme separately with (S)-α-phenylalanine (1 mM), MgCl2 (3 mM), ATP (1 mM), and N-acetylcysteamine at 5, 10, 20, 40, 80, 160, 250, 500, 1000 and 2000 μM at 31° C. for 20 min. […]

Row | SMILES | kcat^NAC [s⁻¹] | Km (TycA with NAC) [µM]
1 | N[C@H](CC(=O)O)c1ccccc1 [(R)-β-Phe, (R)-β-phenylalanine] | 0.006 ± 0.001 | –
2 | N[C@@H](c1ccccc1)[C@@H](O)C(=O)O [(2R,3S)-PheIso, (2R,3S)-phenylisoserine] | 0.00317 ± 0.00017 | 132 ± 56
